The results in this text go back to patent US12686673B2 (Blueprint Medicines Corporation, priority 2020, dated 2026).

Like-named read-outs stand apart in the source and are kept apart here.

Common to all, as to type: cell-based
The test system of test [1] is A431 cells. The test is described as follows: Cellular proliferation (Alamar Blue) assay, A431.
Test [2] concerns the target EGFR (H773insNPH) expressing Ba/F3 stable cell line (Homo sapiens, UniProt P00533, DUP771-773, cells depend on it). In words: Cellular proliferation (Alamar Blue) assay, EGFR H773insNPH Ba/F3. To be noted: 72 hr, read-out: NPH IC50. In outline: (§1)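 Each stable Ba/F3 line, cultured in RPMI with 10% FBS at 15,000 cells per well, received a threefold compound series (final top 10 μM, bottom 0.0005 μM) for 72 hr at 37 degree Celsius, then Alamar Blue for 3 h.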

Test [3] deals with HER2 (A775_G776insYVMA) expressing Ba/F3 stable cell line (Homo sapiens, UniProt P04626, DUP772-775, cells depend on it). In words: Cellular proliferation (Alamar Blue) assay, HER2 A775_G776insYVMA Ba/F3. To be noted: 72 hr, read-out: YVMA IC50. The procedure, abridged: as §1
Test [4] addresses EGFR(D770_N771insSVD) expressing Ba/F3 stable cell line (Homo sapiens, UniProt P00533, DUP768-770, cells depend on it). In words: Cellular proliferation (Alamar Blue) assay, EGFR D770_N771insSVD Ba/F3. To be noted: 72 hr, read-out: D770 IC50. The procedure, abridged:
as §1

The target of test [5] is EGFR (A767_dupASV) expressing Ba/F3 stable cell line (Homo sapiens, UniProt P00533, DUP767-769, cells depend on it). In words: Cellular proliferation (Alamar Blue) assay, EGFR A767_dupASV Ba/F3. To be noted: 72 hr, read-out: A767 IC50. The procedure, abridged:
as §1

Where [6] appears, read: Homo sapiens, A-431; A431 cells, Alamar Blue, 72 hr; read-out: A431 IC50.
Setting [7] is: Homo sapiens, A-431; A431 cells, 72 hr, Alamar Blue; read-out: A431 IC50.

Chain of EGFR(D770_N771insSVD) expressing Ba/F3 stable cell line (P00533 with tags, fused parts or gaps DUP768-770): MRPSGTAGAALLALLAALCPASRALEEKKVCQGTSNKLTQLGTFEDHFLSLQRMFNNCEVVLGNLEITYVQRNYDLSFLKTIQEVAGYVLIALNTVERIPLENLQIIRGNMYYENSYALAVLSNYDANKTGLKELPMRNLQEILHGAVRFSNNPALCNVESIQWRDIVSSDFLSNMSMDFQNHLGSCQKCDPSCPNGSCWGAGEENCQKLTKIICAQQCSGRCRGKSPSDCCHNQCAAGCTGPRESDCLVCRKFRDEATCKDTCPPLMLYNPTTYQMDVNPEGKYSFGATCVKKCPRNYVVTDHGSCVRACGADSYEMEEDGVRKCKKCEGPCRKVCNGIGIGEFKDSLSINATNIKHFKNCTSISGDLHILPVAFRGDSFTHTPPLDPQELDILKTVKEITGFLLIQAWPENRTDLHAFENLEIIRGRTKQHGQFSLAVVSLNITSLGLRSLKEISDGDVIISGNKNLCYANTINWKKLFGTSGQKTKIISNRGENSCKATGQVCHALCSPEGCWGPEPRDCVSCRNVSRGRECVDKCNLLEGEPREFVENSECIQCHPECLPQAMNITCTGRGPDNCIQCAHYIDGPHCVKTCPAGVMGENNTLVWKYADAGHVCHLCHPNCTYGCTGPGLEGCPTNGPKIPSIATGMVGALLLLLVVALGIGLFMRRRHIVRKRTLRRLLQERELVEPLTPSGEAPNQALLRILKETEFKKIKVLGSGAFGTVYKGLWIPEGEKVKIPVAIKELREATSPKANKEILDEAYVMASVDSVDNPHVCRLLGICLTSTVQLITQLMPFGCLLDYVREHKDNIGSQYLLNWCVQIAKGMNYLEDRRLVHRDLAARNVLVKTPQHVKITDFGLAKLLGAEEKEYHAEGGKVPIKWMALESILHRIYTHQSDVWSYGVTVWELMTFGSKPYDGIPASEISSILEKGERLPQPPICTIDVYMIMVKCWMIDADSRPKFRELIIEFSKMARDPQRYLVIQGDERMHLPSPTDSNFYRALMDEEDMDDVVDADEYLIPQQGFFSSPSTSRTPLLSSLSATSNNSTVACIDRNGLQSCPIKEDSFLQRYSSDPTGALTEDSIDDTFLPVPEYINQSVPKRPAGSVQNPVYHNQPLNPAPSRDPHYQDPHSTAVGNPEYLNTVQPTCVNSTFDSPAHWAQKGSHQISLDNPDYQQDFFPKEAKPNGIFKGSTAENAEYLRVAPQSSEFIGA
Chain of EGFR (A767_dupASV) expressing Ba/F3 stable cell line (P00533 with tags, fused parts or gaps DUP767-769): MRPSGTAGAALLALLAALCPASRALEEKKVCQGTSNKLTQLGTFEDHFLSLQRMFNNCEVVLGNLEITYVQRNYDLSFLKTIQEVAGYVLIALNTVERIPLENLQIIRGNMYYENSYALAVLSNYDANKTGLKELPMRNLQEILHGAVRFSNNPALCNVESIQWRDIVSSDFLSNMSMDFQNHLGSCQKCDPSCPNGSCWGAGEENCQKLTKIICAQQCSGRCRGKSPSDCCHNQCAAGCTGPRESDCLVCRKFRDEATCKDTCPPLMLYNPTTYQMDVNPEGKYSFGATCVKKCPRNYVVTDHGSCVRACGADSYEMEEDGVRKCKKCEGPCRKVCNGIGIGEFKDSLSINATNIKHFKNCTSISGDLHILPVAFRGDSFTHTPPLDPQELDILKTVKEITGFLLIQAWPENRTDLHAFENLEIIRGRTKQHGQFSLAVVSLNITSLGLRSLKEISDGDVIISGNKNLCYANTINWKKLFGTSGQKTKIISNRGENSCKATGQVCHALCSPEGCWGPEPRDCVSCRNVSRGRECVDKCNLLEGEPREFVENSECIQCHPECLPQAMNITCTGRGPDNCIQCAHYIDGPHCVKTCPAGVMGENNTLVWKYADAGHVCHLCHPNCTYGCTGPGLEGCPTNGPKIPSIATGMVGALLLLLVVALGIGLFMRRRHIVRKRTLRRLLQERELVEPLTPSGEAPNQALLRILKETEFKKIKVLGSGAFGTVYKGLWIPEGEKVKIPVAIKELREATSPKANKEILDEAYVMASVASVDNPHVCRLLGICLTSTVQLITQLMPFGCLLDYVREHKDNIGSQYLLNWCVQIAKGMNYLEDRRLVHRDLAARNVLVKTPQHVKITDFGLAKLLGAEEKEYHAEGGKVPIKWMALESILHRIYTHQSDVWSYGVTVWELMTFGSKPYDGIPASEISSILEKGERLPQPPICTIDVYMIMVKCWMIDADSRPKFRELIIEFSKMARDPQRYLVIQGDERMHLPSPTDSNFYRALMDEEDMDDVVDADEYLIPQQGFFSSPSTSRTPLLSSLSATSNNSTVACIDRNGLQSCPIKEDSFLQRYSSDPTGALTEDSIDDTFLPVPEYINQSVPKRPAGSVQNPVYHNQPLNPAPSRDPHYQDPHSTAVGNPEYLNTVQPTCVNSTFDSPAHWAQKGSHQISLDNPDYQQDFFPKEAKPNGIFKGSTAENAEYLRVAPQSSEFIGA
Chain of HER2 (A775_G776insYVMA) expressing Ba/F3 stable cell line (P04626 with tags, fused parts or gaps DUP772-775): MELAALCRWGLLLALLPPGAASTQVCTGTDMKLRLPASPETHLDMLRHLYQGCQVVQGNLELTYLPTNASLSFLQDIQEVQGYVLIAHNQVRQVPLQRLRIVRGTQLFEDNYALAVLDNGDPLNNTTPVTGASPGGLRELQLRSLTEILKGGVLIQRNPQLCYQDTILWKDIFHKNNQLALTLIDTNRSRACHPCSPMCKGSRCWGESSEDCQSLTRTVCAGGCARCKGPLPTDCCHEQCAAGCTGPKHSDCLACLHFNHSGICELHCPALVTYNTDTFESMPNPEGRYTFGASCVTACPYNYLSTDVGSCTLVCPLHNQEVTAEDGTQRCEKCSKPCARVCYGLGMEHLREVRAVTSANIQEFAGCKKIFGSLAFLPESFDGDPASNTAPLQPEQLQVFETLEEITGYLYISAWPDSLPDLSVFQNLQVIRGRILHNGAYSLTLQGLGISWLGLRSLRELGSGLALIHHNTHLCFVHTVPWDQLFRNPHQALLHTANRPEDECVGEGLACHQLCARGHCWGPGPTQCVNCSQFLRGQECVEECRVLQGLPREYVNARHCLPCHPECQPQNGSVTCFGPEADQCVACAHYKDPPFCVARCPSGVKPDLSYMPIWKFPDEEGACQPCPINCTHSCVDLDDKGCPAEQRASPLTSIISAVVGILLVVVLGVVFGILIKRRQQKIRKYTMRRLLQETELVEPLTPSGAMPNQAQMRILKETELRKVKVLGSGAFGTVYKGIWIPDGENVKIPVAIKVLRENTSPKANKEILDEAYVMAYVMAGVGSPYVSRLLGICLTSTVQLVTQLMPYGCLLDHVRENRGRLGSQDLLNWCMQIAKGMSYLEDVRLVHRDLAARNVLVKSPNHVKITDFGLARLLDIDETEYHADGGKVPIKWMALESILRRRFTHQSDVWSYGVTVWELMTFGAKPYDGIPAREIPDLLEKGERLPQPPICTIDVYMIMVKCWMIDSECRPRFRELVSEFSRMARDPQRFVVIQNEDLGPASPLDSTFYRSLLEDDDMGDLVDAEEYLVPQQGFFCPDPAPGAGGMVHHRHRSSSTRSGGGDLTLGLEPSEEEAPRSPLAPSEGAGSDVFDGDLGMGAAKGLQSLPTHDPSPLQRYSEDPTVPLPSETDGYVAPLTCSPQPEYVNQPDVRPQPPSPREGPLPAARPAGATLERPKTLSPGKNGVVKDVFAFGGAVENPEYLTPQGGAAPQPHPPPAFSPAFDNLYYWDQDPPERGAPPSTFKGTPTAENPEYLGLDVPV
Chain of EGFR (H773insNPH) expressing Ba/F3 stable cell line (P00533 with tags, fused parts or gaps DUP771-773): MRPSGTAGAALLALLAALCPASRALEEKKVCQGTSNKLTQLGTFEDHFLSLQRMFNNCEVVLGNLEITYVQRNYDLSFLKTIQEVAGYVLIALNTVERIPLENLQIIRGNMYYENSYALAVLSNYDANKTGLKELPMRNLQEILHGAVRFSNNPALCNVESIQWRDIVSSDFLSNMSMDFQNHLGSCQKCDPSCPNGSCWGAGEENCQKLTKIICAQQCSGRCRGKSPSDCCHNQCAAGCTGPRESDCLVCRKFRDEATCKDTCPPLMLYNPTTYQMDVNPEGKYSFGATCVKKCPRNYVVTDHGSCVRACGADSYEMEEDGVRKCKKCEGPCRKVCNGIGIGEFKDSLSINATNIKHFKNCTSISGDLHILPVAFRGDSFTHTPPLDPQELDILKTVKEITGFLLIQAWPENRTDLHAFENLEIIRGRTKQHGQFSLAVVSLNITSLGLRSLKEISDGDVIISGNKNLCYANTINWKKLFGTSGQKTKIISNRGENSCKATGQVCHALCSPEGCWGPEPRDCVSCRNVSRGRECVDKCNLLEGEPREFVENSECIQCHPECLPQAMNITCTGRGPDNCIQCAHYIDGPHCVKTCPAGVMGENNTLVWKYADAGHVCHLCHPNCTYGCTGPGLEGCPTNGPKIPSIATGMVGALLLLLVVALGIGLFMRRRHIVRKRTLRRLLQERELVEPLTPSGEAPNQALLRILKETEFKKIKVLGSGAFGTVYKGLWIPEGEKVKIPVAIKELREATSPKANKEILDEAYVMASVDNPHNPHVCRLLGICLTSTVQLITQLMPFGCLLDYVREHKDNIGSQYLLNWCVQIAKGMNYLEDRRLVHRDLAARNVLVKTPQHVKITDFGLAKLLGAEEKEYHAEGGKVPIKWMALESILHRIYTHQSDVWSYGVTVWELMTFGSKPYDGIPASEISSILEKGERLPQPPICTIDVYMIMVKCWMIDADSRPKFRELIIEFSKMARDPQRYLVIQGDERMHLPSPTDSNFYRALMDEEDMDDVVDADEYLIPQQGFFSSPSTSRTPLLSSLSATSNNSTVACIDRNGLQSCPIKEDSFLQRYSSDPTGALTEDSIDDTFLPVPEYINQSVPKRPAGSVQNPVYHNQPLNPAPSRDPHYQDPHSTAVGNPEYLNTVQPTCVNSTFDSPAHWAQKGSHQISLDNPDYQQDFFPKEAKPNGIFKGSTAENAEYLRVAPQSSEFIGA

In the case of `C=CC(=O)Nc1cccc(Oc2nc(Nc3cnn(C)c3)ncc2-c2ccc(OC(F)F)nc2)c1` [Compound 188, N-(3-((5-(6-(difluoromethoxy)pyridin-3-yl)-2-((1-methyl-1H-pyrazol-4-yl)amino)pyrimidin-4-yl)oxy)phenyl)acrylamide], in test [1] (setting [6]), the half-maximal inhibitory concentration (IC50) stood at 216 nM. Moreover, the GI50 in test [2] was 300 nM; in test [3] it was 269 nM; in test [4], 108 nM; in test [5], 118 nM.
For the compound `C=CC(=O)Nc1cncc(Nc2nc(Nc3cnn(C)c3)ncc2-c2ccc(C(F)(F)F)cc2)c1` [Compound 195, N-(5-((2-((1-methyl-1H-pyrazol-4-yl)amino)-5-(4-(trifluoromethyl)phenyl)pyrimidin-4-yl)amino)pyridin-3-yl)acrylamide], the IC50 in test [1] (setting [6]) was 524 nM. Moreover, the GI50 in test [2] stood at 180 nM; in test [3] it was 258 nM; in test [4], 57 nM; in test [5], 135 nM.
In the case of `C=CC(=O)Nc1ccc(F)c(Nc2nc(Nc3cnn(CCN(C)C)c3)ncc2-c2ccc(Br)cc2)c1` [Compound 203, N-(3-((5-(4-bromophenyl)-2-((1-(2-(dimethylamino)ethyl)-1H-pyrazol-4-yl)amino)pyrimidin-4-yl)amino)-4-fluorophenyl)acrylamide], in test [1] (setting [7]), the concentration for half-maximal inhibition (IC50) amounted to 51 nM. The GI50 in test [2] came out at 107 nM; in test [3] it was 110 nM; in test [4], 69 nM; in test [5] it was 100 nM.
Taken in the same sequence, the figures for `C=CC(=O)Nc1ccc(F)c(Nc2nc(Nc3cn(CCN(C)C)nc3Cl)ncc2-c2ccc(C(F)(F)F)cc2)c1` [Compound 221, N-(3-((2-((3-chloro-1-(2-(dimethylamino)ethyl)-1H-pyrazol-4-yl)amino)-5-(4-(trifluoromethyl)phenyl)pyrimidin-4-yl)amino)-4-fluorophenyl)acrylamide] were 68 nM, 225 nM, 298 nM, 123 nM and 297 nM.
On to `C=CC(=O)Nc1ccc(F)c(Nc2nc(Nc3cnn(C)c3)ncc2-c2cncs2)c1` [Compound 230, N-(4-fluoro-3-((2-((1-methyl-1H-pyrazol-4-yl)amino)-5-(thiazol-5-yl)pyrimidin-4-yl)amino)phenyl)acrylamide], for which the half-maximal inhibitory concentration (IC50) in test [1] (setting [7]) was 109 nM. For the same compound, the GI50 in test [2] stood at 41 nM; in test [3], 54 nM; in test [4] it was 63 nM; in test [5], 63 nM.
`C=CC(=O)Nc1cccc(Oc2nc(Nc3cn(C)nc3Cl)ncc2-c2ccc(C(F)(F)F)cc2)c1` [Compound 233, N-[3-({2-[(3-chloro-1-methyl-1H-pyrazol-4-yl)amino]-5-[4-(trifluoromethyl)phenyl]pyrimidin-4-yl}oxy)phenyl] prop-2-enamide]: in test [1] (setting [7]), the IC50 was found to be 262 nM. In addition, the GI50 in test [2] stood at 385 nM; in test [3] it was 537 nM; in test [4], 187 nM; in test [5] it was 428 nM.
As to `[2H]C([2H])([2H])n1cc(Nc2ncc(-c3ccc(C(F)(F)F)cc3)c(Nc3cc(NC(=O)C=C)ccc3F)n2)cn1` [Compound 242, N-{4-fluoro-3-[(2-{[1-(^2H3)methyl-1H-pyrazol-4-yl]amino}-5-[4-(trifluoromethyl)phenyl]pyrimidin-4-yl)amino]phenyl}prop-2-enamide], the concentration for half-maximal inhibition (IC50) in test [1] (setting [7]) was 129 nM. Besides, the GI50 in test [2] was 101 nM; in test [3], 133 nM; in test [4] it was 98 nM; in test [5], 101 nM.
On to `C=CC(=O)Nc1ccc(F)c(Nc2nc(Nc3cnn(C)c3)ncc2-c2ccc(C(F)(F)F)cc2)c1` [Compound 243, N-(4-fluoro-3-((2-((1-(methyl-^13C-d3)-1H-pyrazol-4-yl)amino)-5-(4-(trifluoromethyl)phenyl)pyrimidin-4-yl)amino)phenyl)acrylamide], for which the IC50 in test [1] (A431 cells, 72 hr, Alamar Blue; read-out: A431 IC50) was 2600 nM. For the same compound, the GI50 in test [2] was 121 nM; in test [3], 237 nM; in test [4] it was 88 nM; in test [5], 135 nM.
For `[2H]C([2H])=CC(=O)Nc1ccc(F)c(Nc2nc(Nc3cnn(C)c3)ncc2-c2ccc(C(F)(F)F)cc2)c1` [Compound 247, N-[4-fluoro-3-({2-[(1-methyl-1H-pyrazol-4-yl)amino]-5-[4-(trifluoromethyl)phenyl]pyrimidin-4-yl}amino)phenyl] (3,3-2H2) prop-2-enamide], in test [1] (setting [7]), the IC50 came out at 3000 nM. Besides, the GI50 in test [2] turned out to be 144 nM; in test [3], 270 nM; in test [4], 86 nM; in test [5], 123 nM.
Regarding `[2H]C([2H])=CC(=O)Nc1ccc(F)c(Nc2nc(Nc3cnn(C([2H])([2H])[2H])c3)ncc2-c2ccc(C(F)(F)F)cc2)c1` [Compound 248, N-(4-fluoro-3-((2-((1-(methyl-d3)-1H-pyrazol-4-yl)amino)-5-(4-(trifluoromethyl)phenyl)pyrimidin-4-yl)amino)phenyl)acrylamide-3,3-d2], in test [1] (setting [7]), the IC50 is 222 nM. The GI50 amounted to 43 nM in test [2], 250 nM in test [3], 109 nM in test [4] and 143 nM in test [5].
